Reference: patent US9474790B2, “Stable, protracted GLP-1/glucagon receptor co-agonists for medical use” (Novo Nordisk A/S, priority 2013, dated 2016)
Numbered stars: 1 amine (or outer) side, 2 acyl side, 3 side chain; on linkers, the order of the positions; unused ones are H or OH. Square brackets hold non-standard residues; d marks the D form. Side chains are listed from the residue outwards. Peptide text beside a SMILES is read from it. * marks the point of attachment. C18 diacid = O=C(O)CCCCCCCCCCCCCCCCC(=O)*; γGlu = O=C(O)[C@H](CCC(=O)[*:2])N[*:1]; Ac4c = NC1(C(=O)O)CCC1; AEEA = NCCOCCOCC(=O)O; Aib = CC(C)(N)C(=O)O

target: T1, human glucagon receptor (Homo sapiens, UniProt P47871); assay: Glucagon receptor binding, 125I-glucagon displacement SPA on isolated membranes; conditions: displacement of 125I-glucagon from membranes; read-out: IC50 GlucR
T1 construct: expressed in transfected cells; host or cells: BHK cells (parent BHK570, CRE luciferase clone BHK/KZ10-20-48), clone pLJ6'-4-25
T1 sequence (P47871 26-477): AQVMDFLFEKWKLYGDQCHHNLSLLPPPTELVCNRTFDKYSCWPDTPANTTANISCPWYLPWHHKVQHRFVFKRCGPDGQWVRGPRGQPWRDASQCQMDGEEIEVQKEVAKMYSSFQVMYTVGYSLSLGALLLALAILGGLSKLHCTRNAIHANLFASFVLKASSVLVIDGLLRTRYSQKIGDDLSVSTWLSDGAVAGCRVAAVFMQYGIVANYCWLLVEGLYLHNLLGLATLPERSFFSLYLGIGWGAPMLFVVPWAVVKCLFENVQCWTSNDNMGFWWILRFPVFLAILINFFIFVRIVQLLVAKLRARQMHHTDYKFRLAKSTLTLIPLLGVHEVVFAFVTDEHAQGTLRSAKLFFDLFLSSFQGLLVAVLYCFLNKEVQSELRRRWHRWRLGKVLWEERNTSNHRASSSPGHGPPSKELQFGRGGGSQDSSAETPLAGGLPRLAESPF
Procedure, shortened: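 Membranes from BHK cells stably expressing human glucagon receptor incubated 2 h at 25 °C with [125I]-glucagon (25 μl of 480 pM solution) and serial compound dilutions in WGA SPA format, pH 7.4 buffer with 0.1% ovalbumin. Albumin at max 0.001% or 0.2% final. IC50 from non-linear regression.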

SMILES	IC50
CC(C)C[C@H](NC(=O)[C@H](Cc1ccc(O)cc1)NC(=O)[C@H](CCCCN)NC(=O)[C@H](CO)NC(=O)[C@H](CC(C)C)NC(=O)[C@H](CC(=O)O)NC(=O)[C@H](CO)NC(=O)[C@@H](NC(=O)[C@H](Cc1ccccc1)NC(=O)[C@@H](NC(=O)CNC(=O)[C@H](CCC(N)=O)NC(=O)C(C)(C)NC(=O)[C@@H](N)Cc1c[nH]cn1)[C@@H](C)O)[C@@H](C)O)C(=O)N[C@@H](CCC(=O)O)C(=O)N[C@@H](CO)C(=O)N[C@@H](CCCNC(=N)N)C(=O)N[C@@H](CCCNC(=N)N)C(=O)N[C@@H](C)C(=O)N[C@@H](CCCNC(=N)N)C(=O)N[C@@H](CCC(=O)O)C(=O)N[C@@H](Cc1ccccc1)C(=O)N[C@H](C(=O)N[C@@H](CCC(N)=O)C(=O)N[C@@H](Cc1c[nH]c2ccccc12)C(=O)N[C@@H](CC(C)C)C(=O)N[C@@H](CC(C)C)C(=O)N[C@@H](CCCCNC(=O)CC[C@H](NC(=O)CC[C@H](NC(=O)COCCOCCNC(=O)COCCOCCNC(=O)CC[C@H](NC(=O)CC[C@H](NC(=O)CCCCCCCCCCCCCCCCC(=O)O)C(=O)O)C(=O)O)C(=O)O)C(=O)O)C(=O)N[C@H](C(N)=O)[C@@H](C)O)C(C)C [Example 60, N^ε28-[(4S)-4-carboxy-4-[[(4S)-4-carboxy-4-[[2-[2-[2-[[2-[2-[2-[[(4S)-4-carboxy-4-[[(4S)-4-carboxy-4-(17-carboxyheptadecanoylamino)butanoyl]amino]butanoyl]amino]ethoxy]ethoxy]acetyl]amino]ethoxy]ethoxy]acetyl]amino]butanoyl]amino]butanoyl]-[Aib2,Leu10,Glu15,Arg20,Glu21,Leu27,Lys28]-Glucagon amide] (H-H[Aib]QGTFTSDLSKYLESRRAREFVQWLLK([γGlu-γGlu-AEEA-AEEA-γGlu-γGlu-C18 diacid])T-NH2; N-terminus assumed)	4 nM
CC(C)C[C@H](NC(=O)[C@H](Cc1ccc(O)cc1)NC(=O)[C@H](CCCNC(=N)N)NC(=O)[C@H](CO)NC(=O)[C@H](CC(C)C)NC(=O)[C@H](CC(=O)O)NC(=O)[C@H](CO)NC(=O)[C@@H](NC(=O)[C@H](Cc1ccccc1)NC(=O)[C@@H](NC(=O)CNC(=O)[C@H](CCC(N)=O)NC(=O)C(C)(C)NC(=O)[C@@H](N)Cc1c[nH]cn1)[C@@H](C)O)[C@@H](C)O)C(=O)N[C@@H](CC(=O)O)C(=O)N[C@@H](C)C(=O)N[C@@H](CCCNC(=N)N)C(=O)N[C@@H](CCCNC(=N)N)C(=O)N[C@@H](C)C(=O)N[C@@H](CCCNC(=N)N)C(=O)N[C@@H](CC(=O)O)C(=O)N[C@@H](Cc1ccccc1)C(=O)N[C@H](C(=O)N[C@@H](CCC(N)=O)C(=O)N[C@@H](Cc1c[nH]c2ccccc12)C(=O)N[C@@H](CC(C)C)C(=O)N[C@@H](CC(C)C)C(=O)N[C@@H](CCCCNC(=O)CC[C@H](NC(=O)CC[C@H](NC(=O)CC[C@H](NC(=O)CCCCCCCCCCCCCCCCC(=O)O)C(=O)O)C(=O)O)C(=O)O)C(=O)N[C@H](C(N)=O)[C@@H](C)O)C(C)C [Example 62, N^ε28-[(4S)-4-carboxy-4-[[(4S)-4-carboxy-4-[[(4S)-4-carboxy-4-(17-carboxyheptadecanoylamino)butanoyl]amino]butanoyl]amino]butanoyl]-[Aib2,Leu10,Arg12,Ala16,Arg20,Leu27,Lys28]-Glucagon amide] (H-H[Aib]QGTFTSDLSRYLDARRARDFVQWLLK([γGlu-γGlu-γGlu-C18 diacid])T-NH2; N-terminus assumed)	3.9 nM

Now those with a lower IC50, led by results:

IC50	SMILES
1.8 nM	CC(C)C[C@H](NC(=O)[C@H](Cc1ccc(O)cc1)NC(=O)[C@H](CCCCN)NC(=O)[C@H](CO)NC(=O)[C@H](CC(C)C)NC(=O)[C@H](CC(=O)O)NC(=O)[C@H](CO)NC(=O)[C@@H](NC(=O)[C@H](Cc1ccccc1)NC(=O)[C@@H](NC(=O)CNC(=O)[C@H](CCC(N)=O)NC(=O)C1(NC(=O)[C@@H](N)Cc2c[nH]cn2)CCC1)[C@@H](C)O)[C@@H](C)O)C(=O)N[C@@H](CCC(=O)O)C(=O)N[C@@H](CO)C(=O)N[C@@H](CCCNC(=N)N)C(=O)N[C@@H](CCCNC(=N)N)C(=O)N[C@@H](C)C(=O)N[C@@H](CCCNC(=N)N)C(=O)N[C@@H](CCC(=O)O)C(=O)N[C@@H](Cc1ccccc1)C(=O)N[C@H](C(=O)N[C@@H](CCC(N)=O)C(=O)N[C@@H](Cc1c[nH]c2ccccc12)C(=O)N[C@@H](CC(C)C)C(=O)N[C@@H](CC(C)C)C(=O)N[C@@H](CCCCNC(=O)CC[C@H](NC(=O)CC[C@H](NC(=O)COCCOCCNC(=O)COCCOCCNC(=O)CC[C@H](NC(=O)CC[C@H](NC(=O)CCCCCCCCCCCCCCCCC(=O)O)C(=O)O)C(=O)O)C(=O)O)C(=O)O)C(=O)N[C@H](C(N)=O)[C@@H](C)O)C(C)C [Example 61, N^ε28-[(4S)-4-carboxy-4-[[(4S)-4-carboxy-4-[[2-[2-[2-[[2-[2-[2-[[(4S)-4-carboxy-4-[[(4S)-4-carboxy-4-(17-carboxyheptadecanoylamino)butanoyl]amino]butanoyl]amino]ethoxy]ethoxy]acetyl]amino]ethoxy]ethoxy]acetyl]amino]butanoyl]amino]butanoyl]-[Acb2,Leu10,Glu15,Arg20,Glu21,Leu27,Lys28]-Glucagon amide] (H-H[Ac4c]QGTFTSDLSKYLESRRAREFVQWLLK([γGlu-γGlu-AEEA-AEEA-γGlu-γGlu-C18 diacid])T-NH2; N-terminus assumed)
1.5 nM	CC(C)C[C@H](NC(=O)[C@H](Cc1ccc(O)cc1)NC(=O)[C@H](CCCCN)NC(=O)[C@H](CO)NC(=O)[C@H](CC(C)C)NC(=O)[C@H](CC(=O)O)NC(=O)[C@H](CO)NC(=O)[C@@H](NC(=O)[C@H](Cc1ccccc1)NC(=O)[C@@H](NC(=O)CNC(=O)[C@H](CCC(N)=O)NC(=O)C(C)(C)NC(=O)[C@@H](N)Cc1c[nH]cn1)[C@@H](C)O)[C@@H](C)O)C(=O)N[C@@H](CCC(=O)O)C(=O)N[C@@H](CO)C(=O)N[C@@H](CCCNC(=N)N)C(=O)N[C@@H](CCCNC(=N)N)C(=O)N[C@@H](C)C(=O)N[C@@H](CCCNC(=N)N)C(=O)N[C@@H](CCC(=O)O)C(=O)N[C@@H](Cc1ccccc1)C(=O)N[C@H](C(=O)N[C@@H](CCC(N)=O)C(=O)N[C@@H](Cc1c[nH]c2ccccc12)C(=O)N[C@@H](CC(C)C)C(=O)N[C@@H](CC(C)C)C(=O)N[C@@H](CCCCNC(=O)CC[C@H](NC(=O)CC[C@H](NC(=O)[C@H](CO)NC(=O)[C@H](CCC(=O)O)NC(=O)[C@H](CO)NC(=O)CC[C@H](NC(=O)CC[C@H](NC(=O)CCCCCCCCCCCCCCCCC(=O)O)C(=O)O)C(=O)O)C(=O)O)C(=O)O)C(=O)N[C@H](C(N)=O)[C@@H](C)O)C(C)C [Example 67, N^ε28-[(4S)-4-carboxy-4-[[(4S)-4-carboxy-4-[[(2S)-2-[[(2S)-4-carboxy-2-[[(2S)-2-[[(4S)-4-carboxy-4-[[(4S)-4-carboxy-4-(17-carboxyheptadecanoylamino)butanoyl]amino]butanoyl]amino]-3-hydroxypropanoyl]amino]butanoyl]amino]-3-hydroxypropanoyl]amino]butanoyl]amino]butanoyl]-[Aib2,Leu10,Glu15,Arg20,Glu21,Leu27,Lys28]-Glucagon amide] (H-H[Aib]QGTFTSDLSKYLESRRAREFVQWLLK([γGlu-γGlu-Ser-Glu-Ser-γGlu-γGlu-C18 diacid])T-NH2; N-terminus assumed)
1.4 nM	CC(C)C[C@H](NC(=O)[C@H](Cc1ccc(O)cc1)NC(=O)[C@H](CCCNC(=N)N)NC(=O)[C@H](CO)NC(=O)[C@H](CC(C)C)NC(=O)[C@H](CC(=O)O)NC(=O)[C@H](CO)NC(=O)[C@@H](NC(=O)[C@H](Cc1ccccc1)NC(=O)[C@@H](NC(=O)CNC(=O)[C@H](CCC(N)=O)NC(=O)C1(NC(=O)[C@@H](N)Cc2c[nH]cn2)CCC1)[C@@H](C)O)[C@@H](C)O)C(=O)N[C@@H](CCC(=O)O)C(=O)N[C@@H](CO)C(=O)N[C@@H](CCCNC(=N)N)C(=O)N[C@@H](CCCNC(=N)N)C(=O)N[C@@H](C)C(=O)N[C@@H](CCCNC(=N)N)C(=O)N[C@@H](CCC(=O)O)C(=O)N[C@@H](Cc1ccccc1)C(=O)N[C@H](C(=O)N[C@@H](CCC(N)=O)C(=O)N[C@@H](Cc1c[nH]c2ccccc12)C(=O)N[C@@H](CC(C)C)C(=O)N[C@@H](CC(C)C)C(=O)N[C@@H](CCCCNC(=O)CC[C@H](NC(=O)CC[C@H](NC(=O)COCCOCCNC(=O)COCCOCCNC(=O)CC[C@H](NC(=O)CC[C@H](NC(=O)CCCCCCCCCCCCCCCCC(=O)O)C(=O)O)C(=O)O)C(=O)O)C(=O)O)C(=O)N[C@H](C(N)=O)[C@@H](C)O)C(C)C [Example 59, N^ε28-[(4S)-4-carboxy-4-[[(4S)-4-carboxy-4-[[2-[2-[2-[[2-[2-[2-[[(4S)-4-carboxy-4-[[(4S)-4-carboxy-4-(17-carboxyheptadecanoylamino)butanoyl]amino]butanoyl]amino]ethoxy]ethoxy]acetyl]amino]ethoxy]ethoxy]acetyl]amino]butanoyl]amino]butanoyl]-[Acb2,Leu10,Arg12,Glu15,Arg20,Glu21,Leu27,Lys28]-Glucagon amide] (H-H[Ac4c]QGTFTSDLSRYLESRRAREFVQWLLK([γGlu-γGlu-AEEA-AEEA-γGlu-γGlu-C18 diacid])T-NH2; N-terminus assumed)
